According to article PMC12434071, “Platinum-group metal half-sandwich complexes of 1-(α-D-glucopyranosyl)-4-hetaryl-1,2,3-triazoles: synthesis, solution equilibrium studies, and investigation of their anticancer and antimicrobial activities” (Frontiers in Chemistry, 2025):

Assays:
[1] = system: human primary dermal fibroblasts; test: SRB assay on human primary dermal fibroblasts; type: cell-based; conditions: maximal inhibition; 48 h treatment; maximum concentration 100 µM
Procedure: FIGURE 7 The ruthenium, osmium, and iridium complexes of ligands 4a, 4b, and 5a are cytostatic on ovarian cancer models with a good therapeutic index. For SRB assays, 1.5 × 10^3 A2780 cells, 1.5 × 10^3 ID8 cells, or 4 × 10^3 primary fibroblasts were plated into 96-well plates. Cells were treated with the compounds in the concentrations indicated for 48 h. Data are represented as average ± SD, from four biological replicates on A2780 and human primary fibroblasts, except in the case of Os complexes, where experiments were performed in three biological replicates. ID8 cells were assessed in three biological replicates. Individual assays were performed in duplicate. Values were normalized for vehicle-treated cells, and the absorbance for vehicle-treated cells equals 1. Normality was assessed using the D’Agostino–Pearson test. Statistical significance was assessed using a two-way ANOVA test followed by Tukey’s post hoc test. For better visibility, normality, transformations, statistical tests, and p values are presented in an MS Excel sheet at https://figshare.com/s/3a0aa60b66f3f746f41e. Color code: black—free ligand (4a,b or 5a), khaki—ruthenium complex (Ru-4a,b), blue—osmium complex (Os-4a,b or Os-5a), green—iridium complex (Ir-4a,b), and red—rhodium complex (Rh-4a,b). An SRB assay measures protein content of cells in correlation with the cell number in an assay well and can therefore be used to assess cell proliferation or long-term cytostasis ([Skehan et al., 1990]). Cells were seeded into 96-well plates the day before the treatment for the assay. Cells were treated with the various compounds for 48 h. Then, the medium was removed, and cells were fixed with 10% trichloroacetic acid. Fixed cells were washed in distilled water three times, followed by staining with SRB (0.4 m/V% dissolved in 1% acetic acid) for 10 min. Stained cells were washed in 1% acetic acid five times; the acetic acid was removed, and the cells were left to dry. […] Plates were measured in a plate photometer (Thermo Scientific Multiscan GO spectrophotometer, Waltham, MA, United States) at 540 nm. […]

ID8 cells = test: MTT reduction assay on ID8 cells; type: cell-based; conditions: maximal inhibition; 4 h treatment; maximum concentration 100 µM
Procedure: FIGURE 5 The ruthenium, osmium, and iridium complexes of ligands 4a, 4b, and 5a decrease MTT reduction. For MTT assays, 4 × 10^3 A2780 cells, 3 × 10^3 ID8 cells, or 6 × 10^3 human primary fibroblasts were plated into 96-well plates. Cells were treated with the compounds in the concentrations indicated for 4 h. Data are represented as average ± SD, from four biological replicates on A2780, and from three biological replicates on ID8 and human primary fibroblasts. For the datasets of 5a and Os-5a on human primary fibroblasts, the data represent four biological replicates. Individual assays were performed in duplicate. Values were normalized for vehicle-treated cells, and the absorbance for vehicle-treated cells equals 1. Normality was assessed using the D'Agostino-Pearson test. Statistical significance was assessed using a two-way ANOVA test followed by Tukey's post hoc test. For better visibility, normality, transformations, statistical tests, and p values are presented in an MS Excel sheet at https://figshare.com/s/3a0aa60b66f3f746f41e. Color code: black-free ligand (4a,b or 5a), khaki-ruthenium complex (Ru-4a,b), green-iridium complex (Ir-4a,b), blue-osmium complex (Os-4a,b or Os-5a), and red-rhodium complex (Rh-4a,b). An MTT reduction assay measures the activity of mitochondrial complex I and can be used to detect toxicity ([[…] et al., 2016]). The assay was performed in a manner similar to that described by [[…] et al. (2023b)]. Briefly, cells were plated into 96-well plates the day before the assay. Cells were treated with the compounds for 4 h; then, MTT was added to a 0.5 mg/mL final concentration, and cells were incubated at 37°C in a cell incubator for 40-60 min, as a function of the cell line being assessed. The culture medium was removed, the reduced MTT dye was dissolved in dimethylsulfoxide, and plates were measured in a plate photometer (Thermo Scientific Multiscan GO spectrophotometer, Waltham, MA, United States) at 540 nm. […] In calculations, the readings for these wells were considered to 1, and all readings were expressed relative to these values. […]

| Compound | Fibroblast SRB max % [1] [%] | ID8 MTT max % (ID8 cells) [%] |
| --- | --- | --- |
| O=C(OC[C@H]1O[C@H](n2cc(-c3ccccn3)nn2)[C@H](OC(=O)c2ccccc2)[C@@H](OC(=O)c2ccccc2)[C@@H]1OC(=O)c1ccccc1)c1ccccc1 [Complex 4a, 1-(2’,3’,4’,6’-Tetra-O-benzoyl-α-D-glucopyranosyl)-4-(pyridin-2-yl)-1,2,3-triazole] | 11.89 | 0 |
| CCCCC(=O)OC[C@H]1O[C@H](n2cc(-c3ccccn3)nn2)[C@H](OC(=O)CCCC)[C@@H](OC(=O)CCCC)[C@@H]1OC(=O)CCCC [Complex 5a, 1-(2’,3’,4’,6’-Tetra-O-pentanoyl-α-D-glucopyranosyl)-4-(pyridin-2-yl)-1,2,3-triazole] | 27.97 | 15.89 |
| O=C(OC[C@H]1O[C@H](n2cc(-c3ccc4ccccc4n3)nn2)[C@H](OC(=O)c2ccccc2)[C@@H](OC(=O)c2ccccc2)[C@@H]1OC(=O)c1ccccc1)c1ccccc1 [Complex 4b, 1-(2’,3’,4’,6’-Tetra-O-benzoyl-α-D-glucopyranosyl)-4-(quinolin-2-yl)-1,2,3-triazole] | 10.76 | 0 |
